US20240327388A1, “QUINOLINAMINE COMPOUND, PREPARATION METHOD THEREFOR AND APPLICATION THEREOF IN PHARMACEUTICALS” (JIANGSU HENGRUI PHARMACEUTICALS CO., LTD., priority 2021, published 2024)
Like-named read-outs stand apart in the source and are kept apart here.

How the values were obtained:
[1] = tested on: dextran sulfate sodium salt (DSS)-induced UC mice; assay: Prophylactic and therapeutic effects on DSS-induced ulcerative colitis (UC) in mice; assay type: in vivo, female C57BL/6 mice; conditions: for efficacy on DSS-induced UC (conclusion in words): 50 mg/kg, body weight and colon length; for body weight decreasing rate / colon length, % of that of the normal control group: DSS-induced UC mice
Procedure: In the experiment, female C57BL/6 mice from Vital River were selected to establish an ulcerative colitis (UC) model induced by dextran sulfate sodium salt (DSS), and the prophylactic and therapeutic effects of a positive compound ABX-464 (see compound 90 in WO2015001518A1) and compound 1 disclosed herein on the DSS-induced ulcerative colitis were evaluated.
Female C57BL/6 mice for experiments, purchased from Vital River Laboratory Animal Technology Co., Ltd. (production license number: SCXK (Zhejiang) 2019-0001, animal certification number: 20210401Abzz0619000795), weighing 20-22 g at the time of purchase, were bred at 5 mice/cage in an independent SPF space (in 12/12-hour light/dark cycle, at a constant temperature of 23±1° C. and a humidity of 50%-60%) and given ad libitum access to food and water. After purchase, the animals were acclimatized for at least 1 week, and then the experiment began.
The mice were randomly divided by body weight into the following 5 groups: normal control group (Naïve group), model group (DSS group), ABX-464 (50 mg/kg, p.o., qd) group, ABX-464 (50 mg/kg, p.o., bid) group, and compound 1 disclosed herein (50 mg/kg, p.o., bid) group. After acclimatization, the mice were subjected to 2.5% DSS feeding from day 0. After 7 days of DSS feeding, the mice were fed normal water until day 10. The corresponding solvents and drugs were administered intragastrically for 10 consecutive days from day 0 to day 10, and the mice were observed daily for changes in body weight from day 0 to day 10. On day 10, the mice were weighed, and the colon length was measured.
The experimental data are expressed as mean±standard error (SEM). Statistical comparison was performed using Excel software t-test. The data of the model group and the data of the normal control group were analyzed and compared. #P<0.05 indicates a significant difference between the model group and the normal control group, ##P<0.01 indicates a highly significant difference between the model group and the normal control group, and ###P<0.001 indicates a very highly significant difference between the model group and the normal control group. *P<0.05 indicates a significant difference between the administration group and the model group, **P<0.01 indicates a highly significant difference between the administration group and the model group, and ***P<0.001 indicates a very highly significant difference between the administration group and the model group.

miR-124 = assay: Up-regulation of miR-124 in CD3/CD28 antibody-activated T cells (SYBR green quantitative PCR); assay type: cell-based; conditions: T-cell, 72 h; activated human T cells, 1 μM compound, 3 days, relative to DMSO, U6 internal reference
Procedure: The effect of the compound on miR-124 expression levels was detected in CD3/CD28 antibody-activated T cells. After the activated T cells were treated with the compound, the total cellular RNA was extracted, the cDNA obtained from reverse transcription was used as a template, and quantification was performed by an SYBR green fluorescence quantitative PCR method using a specific miR-124 primer.
Isolation of T cells: Purchased human peripheral blood mononuclear cells (PBMCs) were counted, centrifuged, and washed once with a separation buffer (PBS, pH 7.4, containing 0.5% BSA and 2 mM EDTA), and the supernatant was discarded. The components were added in an amount of 40 μL of a buffer and 10 μL of pan T Cell Biotin-Antibody Cocktail per 1×10^7 cells, and the pellet was resuspended. The resulting suspension was mixed and incubated in a refrigerator at 4° C. for 5 min. After the incubation was completed, the components were added in an amount of 30 μL of a buffer and 20 μL of Pan T Cell MicroBeads Cocktail per 1×10^7 cells, and the resulting suspension was mixed and incubated in a refrigerator at 4° C. for 10 min. The separation column (LS column) was rinsed with 3 mL of a cell separation buffer in advance, loaded with the above cell suspension, and then repeatedly washed 3 times with 1 mL of the cell separation buffer. The effluent cell fluid was collected in a 15 mL centrifuge tube, thus giving the enriched T cells. The cells were counted and added at a density of 1×10^6 cells/mL to an RPMI1640 medium (complete medium) containing 10% FBS and 40) U/mL IL-2, and the resulting mixture was kept on ice for later use.
Activation of T cells: The corresponding Dynabead Human T-Activator CD3/CD28 for T Cell Expansion and Activation were added to a 1.5 mL centrifuge tube in an amount of 25 μL of the activated magnetic beads per 1×10^6 cells, which should be shaken on a shaker for about 30 s before aspiration. In the centrifuge tube, at a volume ratio of greater than 1:1, the activated magnetic beads were washed 3 times with a medium, and all the washing liquid was removed after the last washing. A complete medium with a volume equal to the starting volume was added to resuspend the activated magnetic beads. The washed activated magnetic beads were added to the cell resuspension, and the resulting mixture was well mixed. The cells were added to a six-well plate at 3 mL/well and incubated in a cell incubator at 37° C. with 5% CO2 for 2 days.
Compound treatment: A 20 mM compound stock solution was diluted to 200 μM with DMSO, and then diluted 4-fold to 50 μM (50)×) with a complete medium. The resulting mixture was well mixed for later use. 4-fold diluted DMSO (25% DMSO) was added to negative control wells. T cells were activated for two days and pipetted uniformly. The 1.5 mL centrifuge tube was mounted on a magnetic rack, and the activated magnetic beads were removed. The cell suspension was collected, and the cells were counted and then centrifuged at 300×g for 10 min to discard the supernatant. The cells were then resuspended to 1.02×10^6 cells/mL, and 980 μL of the cell suspension and 20 μL of the 50× compound were added to each 24-well plate, with the final concentration of the compound being 1 μM. The cells were placed in a cell incubator at 37° C. with 5% CO2 for another 3 days.
RNA extraction: T cells were collected by centrifugation at 1500 rpm for 3 min, washed once with PBS, and centrifuged again to discard the supernatant. The total cellular RNA was extracted using a microRNA extraction kit according to the package insert. 700 μL of a Trizol cell lysis buffer was added to the cell pellet, and the resulting mixture was pipetted uniformly and left at room temperature for 5 min. 140 μL of chloroform was added, and the resulting mixture was well mixed with shaking and left to stand at room temperature for 3 min. The chloroform-cell lysis buffer mixture was centrifuged at 12000×g and 4° C. for 15 min. […]

[2] = Pharmacokinetic study in rats (intragastric administration and intravenous injection, LC/MS/MS); assay type: in vivo, SD rats; conditions: rat; for Vd/F / AUC / CL/F / half-life / Cmax / MRT / Vd / clearance: both sexes, SD, plasma; for Vd/F: read-out: Apparent volume of distribution Vz/F; for AUC: read-out: Area under curve AUC; for CL/F: read-out: Clearance CL/F; for half-life: read-out: Half-life t½ (converted); for Cmax: read-out: Plasma concentration Cmax; for MRT: read-out: Residence time MRT; for Vd: read-out: Apparent volume of distribution Vz; for clearance: read-out: Clearance CL
Procedure: With rats as test animals, the plasma concentration of the compound of Example 2 and a comparative compound A (see compound (1) of Example 3 in WO2016135052A1) were determined by LC/MS/MS at different time points after intragastric administration and intravenous injection to the rats. The pharmacokinetic behavior in rats of the compound disclosed herein was studied and its pharmacokinetic profile was evaluated.
16 healthy adult SD rats (half male and half female, purchased from Vital River Laboratory Animal Technology Co., Ltd.) were evenly divided into 4 groups.
A certain amount of the compound was weighed out, and 5% of DMSO, 5% of Tween 80, and 90% of normal saline were added to give a colorless and clear solution.
Intragastric administration group: SD rats were fasted overnight, and then the compound was administered intragastrically to the rats at a dose of 2 mg/kg and a volume of 10.0 mL/kg.
Intravenous administration group: SD rats were fasted overnight, and then the compound was administered to the rats by intravenous injection at a dose of 1 mg/kg and a volume of 5.0 mL/kg.
Intragastric administration group: The compound of Example 2 and the comparative compound A were administered intragastrically to the rats, and 0.1 mL of blood was collected from the orbit before administration and 0.25 h, 0.5 h, 1.0 h, 2.0 h, 4.0 h, 6.0 h, 8.0 h, 11.0 h and 24.0 h after administration. The blood was placed in an EDTA-K2 anticoagulation tube and centrifuged at 10000 rpm for 1 min at 4° C. The plasma was separated within 1 h and stored at −20° C. before analysis. The process from blood collection to centrifugation was performed in an ice bath. Two hours after administration, feeding was resumed.
Intravenous administration group: The rats were injected intravenously with the compound of Example 2 and the comparative compound A, and the blood was collected before administration and 5 min, 15 min, 0.5 h, 1.0 h, 2.0 h, 4.0 h, 8.0 h, 11.0 h and 24.0 h after administration and treated in the same way as the blood of the intragastric administration group.
Determination of plasma concentrations in rats after intragastric administration and intravenous injection of the test compounds at different concentrations: 20 μL of rat plasma at each time point after administration was mixed with 50 μL of an internal standard solution (camptothecin, 100 ng/mL) and 200 μL of acetonitrile, and the mixture was vortexed for 5 min and centrifuged for 10 min at 3700-4000 rpm. 1.0-2.0 μL of supernatant of the plasma sample was taken for LC/MS/MS analysis.

[3] = po, intragastric administration, 2 mg/kg

| SMILES | efficacy on DSS-induced UC (conclusion in words) [1] | body weight decreasing rate ([1]; day 10, 50 mg/kg p.o. bid) [%] | colon length, % of that of the normal control group ([1]; day 10, 50 mg/kg p.o. bid) [%] | body weight decreasing rate ([1]; day 10, 50 mg/kg p.o. qd) [%] | colon length, % of that of the normal control group ([1]; day 10, 50 mg/kg p.o. qd) [%] | fold induction at 1 µM (miR-124) | Vd/F [2, 3] [L/kg] | AUC [2, 3] [ng·h/mL] | CL/F [2, 3] [mL/min/kg] | half-life [2, 3] [min] | Cmax [2, 3] [ng/mL] | MRT [2, 3] [h] | Vd ([2]; intravenous injection, 1 mg/kg) [L/kg] | AUC ([2]; intravenous injection, 1 mg/kg) [ng·h/mL] | clearance ([2]; intravenous injection, 1 mg/kg) [mL/min/kg] | half-life ([2]; intravenous injection, 1 mg/kg) [min] | MRT ([2]; intravenous injection, 1 mg/kg) [h] | pharmacokinetic profile (conclusion in words) ([2]; compared to comparative compound A) |
| --- | --- | --- | --- | --- | --- | --- | --- | --- | --- | --- | --- | --- | --- | --- | --- | --- | --- | --- |
| FC(F)(F)Oc1ccc(Nc2ccc3cccc(Cl)c3n2)cc1 [ABX-464] | certain prophylactic and therapeutic effects on the DSS-induced UC | 10.3 | 89.3 | 14.1 | 85.5 | – | – | – | – | – | – | – | – | – | – | – | – | – |
| FC1(F)Oc2ccc(Nc3ccc4cccc(Cl)c4n3)cc2O1 [Compound 1, 8-Chloro-N-(2,2-difluorobenzo[d][1,3]dioxol-5-yl)quinolin-2-amine] | better efficacy in terms of body weight and colon length than the positive drug ABX-464 | 0.4 | 91.9 | – | – | 3.9 | – | – | – | – | – | – | – | – | – | – | – | – |
| O=C(O)[C@H]1O[C@@H](N(c2ccc(OC(F)(F)F)cc2)c2ccc3cccc(Cl)c3n2)[C@H](O)[C@@H](O)[C@@H]1O [A, reference compound] | – | – | – | – | – | – | 21.4 | 311 | 95.7 | 154 | 105 | 3.76 | 0.151 | 11900 | 1.45 | 74.4 | 1.17 | – |
| O=C(O)[C@H]1O[C@@H](N(c2ccc3c(c2)OC(F)(F)O3)c2ccc3cccc(Cl)c3n2)[C@H](O)[C@@H](O)[C@@H]1O [Compound 2, (2S,3S,4S,5R,6R)-6-((8-Chloroquinolin-2-yl)(2,2-difluorobenzo[d][1,3]dioxol-5-yl)amino)-3,4,5-trihydroxytetrahydro-2H-pyran-2-carboxylic acid] | – | – | – | – | – | 1.2 | 6.18 | 1220 | 28.7 | 148 | 242 | 4.32 | 0.178 | 23000 | 0.781 | 171 | 2.1 | good absorption profile and significant pharmacokinetic superiority as compared to the comparative compound A |
